Read-outs that look alike come from different tables or passages of the source.
How the values were obtained:
Assay in all cases: Test A pre-/postemergence plant response
Format in all cases: in vivo
[1] = test system: morningglory (Ipomoea spp.); settings: for pest or weed control at 125 g/ha / pest or weed control at 500 g/ha: Ipomoea, 240 h
In short: (§1)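 Visual injury rating on a 0–100 scale (0 = no effect, 100 = complete control) was made versus untreated controls after about ten days in the greenhouse. Compounds, formulated in a non-phytotoxic solvent mix containing surfactant, were sprayed preemergence onto loam/sand soil and postemergence onto one- to two-leaf plants.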

[2] = test system: large crabgrass (Digitaria sanguinalis); settings: for pest or weed control at 125 g/ha / pest or weed control at 500 g/ha: Digitaria sanguinalis, 240 h
In short: as §1

[3] = test system: giant foxtail (Setaria faberii); settings: for pest or weed control at 125 g/ha / pest or weed control at 500 g/ha: Setaria faberi, 240 h
In short: as §1

[4] = test system: wheat (Triticum aestivum); settings: for plant injury at 125 g/ha / plant injury at 500 g/ha: Triticum aestivum, 240 h
In short: as §1

[5] = test system: velvetleaf (Abutilon theophrasti); settings: for pest or weed control at 125 g/ha / pest or weed control at 500 g/ha: Abutilon theophrasti, 240 h
In short: as §1

[6] = test system: barnyardgrass (Echinochloa crus-galli); settings: for pest or weed control at 125 g/ha / pest or weed control at 500 g/ha: Echinochloa crus-galli, 240 h
In short: as §1

corn (Zea mays) = settings: for plant injury at 125 g/ha / Corn plant response rating (crop injury, 0 = no effect, 100 = complete kill) at 500 g/ha / Corn plant response rating (crop injury, 0 = no effect, 100 = complete kill) at 125 g/ha: Zea mays, 240 h; for plant injury at 125 g/ha: read-out: Corn plant response rating
In short: as §1

[7] = test system: pigweed (Amaranthus retroflexus); settings: for pest or weed control at 125 g/ha / pest or weed control at 500 g/ha: Amaranthus retroflexus, 240 h
In short: as §1

[8] = Postemergence, 125 g ai/ha, visual injury, 0 to 100 scale (0 no effect, 100 complete control), approx. ten days
[9] = Postemergence, 500 g ai/ha, 0 to 100 scale, 0 = no effect, 100 = complete control, approx. ten days
[10] = Preemergence, 125 g ai/ha, 0 to 100 scale, 0 = no effect, 100 = complete control
[11] = Preemergence, 500 g ai/ha, visual injury, 0 to 100 scale (0 no effect, 100 complete control), approx. ten days
[12] = post-emergence, Postemergence, 125 g ai/ha, visual injury, 0 to 100 scale (0 no effect, 100 complete control), approx. ten days, read-out: Morningglory plant response rating
[13] = post-emergence, Postemergence, 500 g ai/ha, 0 to 100 scale, 0 = no effect, 100 = complete control, approx. ten days, read-out: Plant response rating, Morningglory
[14] = pre-emergence, Preemergence, 125 g ai/ha, 0 to 100 scale, 0 = no effect, 100 = complete control, read-out: Plant response rating, Morningglory
[15] = pre-emergence, Preemergence, 500 g ai/ha, visual injury, 0 to 100 scale (0 no effect, 100 complete control), approx. ten days, read-out: Plant response rating, Morningglory
[16] = post-emergence, Postemergence, 125 g ai/ha, visual injury, 0 to 100 scale (0 no effect, 100 complete control), approx. ten days, read-out: Crabgrass, Large plant response rating
[17] = post-emergence, Postemergence, 500 g ai/ha, 0 to 100 scale, 0 = no effect, 100 = complete control, approx. ten days, read-out: Plant response rating, Crabgrass, Large
[18] = pre-emergence, Preemergence, 125 g ai/ha, 0 to 100 scale, 0 = no effect, 100 = complete control, read-out: Plant response rating, Crabgrass, Large
[19] = pre-emergence, Preemergence, 500 g ai/ha, visual injury, 0 to 100 scale (0 no effect, 100 complete control), approx. ten days, read-out: Plant response rating, Crabgrass, Large
[20] = post-emergence, Postemergence, 125 g ai/ha, visual injury, 0 to 100 scale (0 no effect, 100 complete control), approx. ten days, read-out: Foxtail, Giant plant response rating
[21] = post-emergence, Postemergence, 500 g ai/ha, 0 to 100 scale, 0 = no effect, 100 = complete control, approx. ten days, read-out: Plant response rating, Foxtail, Giant
[22] = pre-emergence, Preemergence, 125 g ai/ha, 0 to 100 scale, 0 = no effect, 100 = complete control, read-out: Plant response rating, Foxtail, Giant
[23] = pre-emergence, Preemergence, 500 g ai/ha, visual injury, 0 to 100 scale (0 no effect, 100 complete control), approx. ten days, read-out: Plant response rating, Foxtail, Giant
[24] = post-emergence, Postemergence, 125 g ai/ha, visual injury, 0 to 100 scale (0 no effect, 100 complete control), approx. ten days, read-out: Wheat plant response rating
[25] = post-emergence, Postemergence, 500 g ai/ha, 0 to 100 scale, 0 = no effect, 100 = complete control, approx. ten days, read-out: Plant response rating, Wheat
[26] = pre-emergence, Preemergence, 125 g ai/ha, 0 to 100 scale, 0 = no effect, 100 = complete control, read-out: Plant response rating, Wheat
[27] = pre-emergence, Preemergence, 500 g ai/ha, visual injury, 0 to 100 scale (0 no effect, 100 complete control), approx. ten days, read-out: Plant response rating, Wheat
[28] = post-emergence, Postemergence, 125 g ai/ha, visual injury, 0 to 100 scale (0 no effect, 100 complete control), approx. ten days, read-out: Velvetleaf plant response rating
[29] = post-emergence, Postemergence, 500 g ai/ha, 0 to 100 scale, 0 = no effect, 100 = complete control, approx. ten days, read-out: Plant response rating, Velvetleaf
[30] = pre-emergence, Preemergence, 125 g ai/ha, 0 to 100 scale, 0 = no effect, 100 = complete control, read-out: Plant response rating, Velvetleaf
[31] = pre-emergence, Preemergence, 500 g ai/ha, visual injury, 0 to 100 scale (0 no effect, 100 complete control), approx. ten days, read-out: Plant response rating, Velvetleaf
[32] = post-emergence, Postemergence, 125 g ai/ha, visual injury, 0 to 100 scale (0 no effect, 100 complete control), approx. ten days, read-out: Barnyardgrass plant response rating
[33] = post-emergence, Postemergence, 500 g ai/ha, 0 to 100 scale, 0 = no effect, 100 = complete control, approx. ten days, read-out: Plant response rating, Barnyardgrass
[34] = pre-emergence, Preemergence, 125 g ai/ha, 0 to 100 scale, 0 = no effect, 100 = complete control, read-out: Plant response rating, Barnyardgrass
[35] = pre-emergence, Preemergence, 500 g ai/ha, visual injury, 0 to 100 scale (0 no effect, 100 complete control), approx. ten days, read-out: Plant response rating, Barnyardgrass
[36] = post-emergence, Postemergence, 125 g ai/ha, visual injury, 0 to 100 scale (0 no effect, 100 complete control), approx. ten days
[37] = post-emergence, Postemergence, 500 g ai/ha, 0 to 100 scale, 0 = no effect, 100 = complete control, approx. ten days
[38] = pre-emergence, Preemergence, 125 g ai/ha, 0 to 100 scale, 0 = no effect, 100 = complete control
[39] = pre-emergence, Preemergence, 500 g ai/ha, visual injury, 0 to 100 scale (0 no effect, 100 complete control), approx. ten days
[40] = post-emergence, Postemergence, 125 g ai/ha, visual injury, 0 to 100 scale (0 no effect, 100 complete control), approx. ten days, read-out: Pigweed plant response rating
[41] = post-emergence, Postemergence, 500 g ai/ha, 0 to 100 scale, 0 = no effect, 100 = complete control, approx. ten days, read-out: Plant response rating, Pigweed

COc1cccc(-n2c(-c3ccccc3)ncc(C(=O)C3=C(O)CCCC3=O)c2=O)c1 [Compound 19]
Morningglory plant response rating [1, 8]: 0 | Plant response rating, Morningglory [1, 9]: 60 | Plant response rating, Morningglory [1, 10]: 0 | Plant response rating, Morningglory [1, 11]: 50 | Crabgrass, Large plant response rating [2, 8]: 0 | Plant response rating, Crabgrass, Large [2, 9]: 20 | Plant response rating, Crabgrass, Large [2, 10]: 20 | Plant response rating, Crabgrass, Large [2, 11]: 80 | Foxtail, Giant plant response rating [3, 8]: 20 | Plant response rating, Foxtail, Giant [3, 9]: 50 | Plant response rating, Foxtail, Giant [3, 10]: 10 | Plant response rating, Foxtail, Giant [3, 11]: 30 | Wheat plant response rating [4, 8]: 0 | Plant response rating, Wheat [4, 9]: 0 | Plant response rating, Wheat [4, 10]: 0 | Plant response rating, Wheat [4, 11]: 0 | Velvetleaf plant response rating [5, 8]: 100 | Plant response rating, Velvetleaf [5, 9]: 100 | Plant response rating, Velvetleaf [5, 10]: 50 | Plant response rating, Velvetleaf [5, 11]: 100 | Barnyardgrass plant response rating [6, 8]: 0 | Plant response rating, Barnyardgrass [6, 9]: 70 | Plant response rating, Barnyardgrass [6, 10]: 10 | Plant response rating, Barnyardgrass [6, 11]: 90 | Corn plant response rating (corn (Zea mays); [8]): 0 | Plant response rating, Corn (corn (Zea mays); [9]): 10 | Plant response rating, Corn (corn (Zea mays); [10]): 0 | Plant response rating, Corn (corn (Zea mays); [11]): 0 | Pigweed plant response rating [7, 8]: 80 | Plant response rating, Pigweed [7, 9]: 100 | Plant response rating, Pigweed [7, 10]: 80 | Plant response rating, Pigweed [7, 11]: 90

CCn1ncc(C(=O)c2cnc(-c3ccccc3)n(Cc3ccccc3)c2=O)c1O [Compound 20, 5-[(1-ethyl-5-hydroxy-1H-pyrazol-4-yl)carbonyl]-2-phenyl-3-(phenylmethyl)-4(3H)-pyrimidinone]
pest or weed control at 125 g/ha [1, 12]: 0% | pest or weed control at 500 g/ha [1, 13]: 10% | pest or weed control at 125 g/ha [1, 14]: 0% | pest or weed control at 500 g/ha [1, 15]: 0% | pest or weed control at 125 g/ha [2, 16]: 0% | pest or weed control at 500 g/ha [2, 17]: 10% | pest or weed control at 125 g/ha [2, 18]: 0% | pest or weed control at 500 g/ha [2, 19]: 30% | pest or weed control at 125 g/ha [3, 20]: 0% | pest or weed control at 500 g/ha [3, 21]: 0% | pest or weed control at 125 g/ha [3, 22]: 0% | pest or weed control at 500 g/ha [3, 23]: 20% | plant injury at 125 g/ha [4, 24]: 0% | plant injury at 500 g/ha [4, 25]: 0% | plant injury at 125 g/ha [4, 26]: 0% | plant injury at 500 g/ha [4, 27]: 0% | pest or weed control at 125 g/ha [5, 28]: 20% | pest or weed control at 500 g/ha [5, 29]: 70% | pest or weed control at 125 g/ha [5, 30]: 0% | pest or weed control at 500 g/ha [5, 31]: 50% | pest or weed control at 125 g/ha [6, 32]: 0% | pest or weed control at 500 g/ha [6, 33]: 10% | pest or weed control at 125 g/ha [6, 34]: 0% | pest or weed control at 500 g/ha [6, 35]: 20% | plant injury at 125 g/ha (corn (Zea mays); [36]): 0% | Corn plant response rating (crop injury, 0 = no effect, 100 = complete kill) at 500 g/ha (corn (Zea mays); [37]): 10% | Corn plant response rating (crop injury, 0 = no effect, 100 = complete kill) at 125 g/ha (corn (Zea mays); [38]): 0% | Corn plant response rating (crop injury, 0 = no effect, 100 = complete kill) at 500 g/ha (corn (Zea mays); [39]): 0% | pest or weed control at 125 g/ha [7, 40]: 10% | pest or weed control at 500 g/ha [7, 41]: 50% | pest or weed control at 125 g/ha ([7]; pre-emergence, Preemergence, 125 g ai/ha, 0 to 100 scale, 0 = no effect, 100 = complete control, read-out: Plant response rating, Pigweed): 0%

CCn1ncc(C(=O)c2cnc(-c3ccccc3)n(Cc3ccccc3)c2=O)c1OS(=O)(=O)c1ccc(C)cc1 [Compound 21, 5-[[1-ethyl-5-[[(4-methylphenyl)sulfonyl]oxy]-1H-pyrazol-4-yl]carbonyl]-2-phenyl-3-(phenylmethyl)-4(3H)-pyrimidinone]
pest or weed control at 125 g/ha [1, 12]: 0% | pest or weed control at 500 g/ha [1, 13]: 0% | pest or weed control at 125 g/ha [1, 14]: 0% | pest or weed control at 500 g/ha [1, 15]: 0% | pest or weed control at 125 g/ha [2, 16]: 0% | pest or weed control at 500 g/ha [2, 17]: 10% | pest or weed control at 125 g/ha [2, 18]: 0% | pest or weed control at 500 g/ha [2, 19]: 20% | pest or weed control at 125 g/ha [3, 20]: 0% | pest or weed control at 500 g/ha [3, 21]: 0% | pest or weed control at 125 g/ha [3, 22]: 0% | pest or weed control at 500 g/ha [3, 23]: 10% | plant injury at 125 g/ha [4, 24]: 0% | plant injury at 500 g/ha [4, 25]: 0% | plant injury at 125 g/ha [4, 26]: 0% | plant injury at 500 g/ha [4, 27]: 0% | pest or weed control at 125 g/ha [5, 28]: 30% | pest or weed control at 500 g/ha [5, 29]: 70% | pest or weed control at 125 g/ha [5, 30]: 0% | pest or weed control at 500 g/ha [5, 31]: 0% | pest or weed control at 125 g/ha [6, 32]: 0% | pest or weed control at 500 g/ha [6, 33]: 10% | pest or weed control at 125 g/ha [6, 34]: 0% | pest or weed control at 500 g/ha [6, 35]: 0% | plant injury at 125 g/ha (corn (Zea mays); [36]): 0% | Corn plant response rating (crop injury, 0 = no effect, 100 = complete kill) at 500 g/ha (corn (Zea mays); [37]): 0% | Corn plant response rating (crop injury, 0 = no effect, 100 = complete kill) at 125 g/ha (corn (Zea mays); [38]): 0% | Corn plant response rating (crop injury, 0 = no effect, 100 = complete kill) at 500 g/ha (corn (Zea mays); [39]): 0% | pest or weed control at 125 g/ha [7, 40]: 0% | pest or weed control at 500 g/ha [7, 41]: 50% | pest or weed control at 500 g/ha ([7]; pre-emergence, Preemergence, 500 g ai/ha, visual injury, 0 to 100 scale (0 no effect, 100 complete control), approx. ten days, read-out: Plant response rating, Pigweed): 70%
